# Test results from PMC10916352, “Safety Evaluation of a Prototypical Diazirine-Based Covalent Crosslinker and Molecular Adhesive” (International Journal of Toxicology, 2023).
# Several values for one entry are separate records, joined by “and”; a condition that tells them apart may be missing. Equal values may be shown once.
# Experiments:
# [1] = In vitro skin corrosion test, MTT viability; details: human, EpiDerm Skin Model (reconstructed human epidermis)
# Procedure: (§5) The skin corrosion test was performed to assess the cytotoxic effects of BondLynx immediately following short-term exposure to the stratum corneum of the epidermis using an in vitro skin model.[32]–[34] Cytotoxicity to the skin model was expressed as the reduction of mitochondrial dehydrogenase activity measured by formazan production from 3-(4,5-dimethylthiazol-2-yl)-2,5-diphenyl tetrazolium bromide (MTT). […] BondLynx was checked for direct MTT reduction by incubating at least 50 mg of BondLynx with 1 mL MTT for 3 h to ensure that no blue/purple colour change or precipitate occurred. BondLynx was tested for colour interference by incubating at least 50 mg of BondLynx in water for 1 h and isopropanol for 2-3 h, centrifuging for 30 s at 16,000 g, and measuring the OD570 to ensure an optical density ≤.08 (after subtracting a Milli-Q water blank).
# (§6) Incubations were performed at 37.0-37.3°C, in an atmosphere with 77%-95% humidity containing 5.0 ± .5% CO2 in air unless otherwise stated. The positive control was 8.0 N aqueous potassium hydroxide (KOH) solution, and the negative control was Milli-Q water. BondLynx was applied directly to the test system as a solid and spread to match the size of the tissue. Tests were performed in duplicate.
# (§7) Skin tissue samples were refrigerated for 1 day upon receipt before placing in a six-well plate with .9 mL supplemented DMEM (just enough to reach the bottom of the tissue) 1 h before testing. A total of four samples were prepared per test item by applying 50 μL of the positive or negative control, or 25 μL of Milli-Q water (to moisten the tissue and ensure close contact) followed by 34.2-39.8 mg of BondLynx. Two samples of each test item were incubated for 3 min at room temperature, while the remaining samples were incubated for 1 h. After exposure, tissues were washed with phosphate buffered saline, dried carefully, and stored in 300 μL DMEM in a 24 well plate until the full six-well plate was dosed and rinsed.
# (§8) Cell viability after incubation was determined by replacing the DMEM with 300 μL MTT in supplemented DMEM (1 mg/mL) and incubating for 3 h. Tissues were then washed with phosphate buffer saline, and formazan was extracted with 2 mL isopropanol overnight. The amount of extracted formazan was measured in triplicate for each sample by the OD570.
# (§9) Optical density readings were corrected by subtracting the mean blank OD570. Cell viability was calculated as the percentage of the mean corrected OD570 for the test compound relative to the mean OD570 for the negative control (% Viability = ODtest/ODnegative control × 100%).
# [2] = test system: EpiDerm Skin Model (human-derived epidermal keratinocytes); assay: In vitro skin corrosion test, MTT viability; details: for OD570 / OD570 corrected: tissues A and B, triplicate readings
# Procedure: as §5, §6, §7, §8, §9
# [3] = In vitro skin irritation test, MTT viability; assay type: cell-based, human; details: human; 15 min exposure, 42 h post-incubation, relative to phosphate buffered saline; read-out: Cell Viability (%)
# Procedure: (§1) Tests were performed in triplicate. […] Following exposure, samples were rinsed with phosphate buffered saline until no test item remain, dried carefully, and placed in a new 2 mL well with pre-warmed Maintenance Medium to incubate for 42 h. After incubation, cell culture inserts were dried carefully, transferred into a 12-well plate prefilled with 2 mL MTT in phosphate buffered saline (.3 mg/mL), and incubated for 3 h. Tissue samples were then dried, and a biopsy punch was taken. The epidermis was separated from the collagen matrix, and both were extracted with 500 μL isopropanol and stored for 70 h refrigerated. The amount of extracted formazan was measured in duplicate for each sample by the OD570.
# [4] = test system: EPISKIN Small Model (human epidermis model); assay: In vitro skin irritation test, MTT viability; assay type: cell-based
# Procedure: as §1
# [5] = test system: Salmonella typhimurium TA100; assay: Bacterial reverse mutation test (Ames), strain TA100; assay type: cell-based; details: for Revertant Colonies (With S9), plates A, B, C / Revertant Colonies (Without S9), plates A, B, C: individual plates
# Procedure: (§2) The reverse mutation test was performed to determine the potential of BondLynx and/or its metabolites to induce reverse mutations at the histidine locus of Salmonella typhimurium.[26],[27] The test employs strains of Salmonella typhimurium carrying mutations in the genes involved in histidine production, such that they are only able to grow in histidine supplemented culture media. Upon exposure to mutagenic materials, these mutations may be reversed, thereby restoring the ability to grow in histidine-free media. When grown in the presence of the test compound on media with a small amount of histidine, tester strains grow briefly to allow the opportunity for mutation, followed by proliferation of revertant colonies upon depletion of the provided histidine. Thus, the number of revertant colonies following incubation is indicative of the ability of the test compound to induce mutations.
# (§3) Tests were performed on two strains of the bacteria (TA98 and TA100) in the absence and presence of an exogenous mammalian metabolic activation system (5% v/v S9). Positive controls and BondLynx were suspended in dimethyl sulfoxide (DMSO) for testing, and DMSO served as the vehicle control. Positive controls consisted of 2-nitrofluorene (10 μg/plate) for the TA98 strain without S9, methyl mesylate (650 μg/plate) for the TA100 strain without S9, and 2-aminoanthracene for both strains with S9 (1 μg/plate for TA98 and 5 μg/plate for TA100). Eight concentrations of BondLynx (1.7, 5.4, 17, 52, 164, 512, 1600 and 5000 μg/plate) were tested in triplicate. The vehicle control was tested in triplicate and the positive controls were tested singular.
# (§4) Test solutions were prepared by pre-incubating .1 mL fresh bacterial culture (10^9 cells/mL), .1 mL of a BondLynx dilution or control solution, and .5 mL of S9 mix or .1 M phosphate buffer for 30 min before adding to 3 mL of molten (45 ± 2°C) top agar. After mixing in a vortex, agar solutions were poured onto selective agar plates. Upon solidification, the prepared plates were inverted and incubated at 37.0 ± 1.0°C for 48 ± 4 h. Following incubation, revertant colonies were counted with a Sorcerer Colony Counter. The condition of the bacterial background lawn was evaluated macroscopically and/or microscopically using a dissecting microscope when considered necessary.
# [6] = test system: Salmonella typhimurium TA98; assay: Bacterial reverse mutation test (Ames), strain TA98; assay type: cell-based; details: for Revertant Colonies (With S9), plates A, B, C / Revertant Colonies (Without S9), plates A, B, C: individual plates
# Procedure: as §2, §3, §4
# [7] = TA100, without S9, 1.7 μg/plate
# [8] = TA100, without S9, 5.4 μg/plate
# [9] = TA100, without S9, 164 μg/plate
# [10] = TA100, without S9, 512 μg/plate
# [11] = TA100, without S9, 1600 μg/plate
# [12] = TA100, without S9, 5000 μg/plate
# [13] = absence of S9, higher concentrations
# [14] = presence of S9, any tested dose level
# [15] = TA98, without S9, 1600 μg/plate
# [16] = TA98, without S9, 5000 μg/plate
smiles,measurement,setting,value
"FC(F)(F)C1(c2ccc(C(c3ccc(C4(C(F)(F)F)N=N4)cc3)(C(F)(F)F)C(F)(F)F)cc2)N=N1 [BondLynx, 2,2-bis-[4-[3-(trifluoromethyl)-3H-diazirin-3-yl]phenyl]hexafluoropropane]",viability at 3 min,[1],101%
same,viability at 1 h,[1],95%
same,Mean ± SD (OD570 corrected),[2]; 3 min exposure,1.7 ± 0.1
same,OD570,[2]; 3 min exposure,1.8819 and 1.869 and 1.8445 and 1.7365 and 1.7069 and 1.7026
same,OD570 corrected,[2]; 3 min exposure,1.837 and 1.8241 and 1.7996 and 1.6916 and 1.662 and 1.6577
same,Mean ± SD (OD570 corrected),[2]; 1 h exposure,1.85 ± .09
same,OD570,[2]; 1 h exposure,1.9919 and 1.9396 and 1.9528 and 1.8727 and 1.8128 and 1.8033
same,OD570 corrected,[2]; 1 h exposure,1.947 and 1.8947 and 1.9079 and 1.8278 and 1.7679 and 1.7584
same,Skin corrosion classification,[2]; viability >50% after 3 min and >15% after 1 h,not corrosive
same,viability at 15 min,[3],106%
same,Mean ± SD (OD570 corrected),"[4]; 15 min exposure, 42 h post-incubation",1.019 ± .011
same,OD570,"[4]; 15 min exposure, 42 h post-incubation, tissues A-C, duplicate readings",1.0621 and 1.0517 and 1.0668 and 1.0420 and 1.0901 and 1.0602
same,Skin irritation classification,[4]; viability >50%,non-irritant
same,Mutagenicity conclusion,"[5]; TA100, absence and presence of S9, 1.7 to 5000 μg/plate",non-mutagenic
same,Total number of revertants relative to concurrent vehicle control,"[5]; TA100, vs DMSO vehicle control",less than two times
same,"Revertant Colonies (With S9), Mean ± SD","[5]; TA100, with S9, 1.7 μg/plate",95 ± 3
same,"Revertant Colonies (With S9), plates A, B, C","[5]; TA100, with S9, 1.7 μg/plate",93 and 94 and 98
same,"Revertant Colonies (With S9), Mean ± SD","[5]; TA100, with S9, 5.4 μg/plate",92 ± 17
same,"Revertant Colonies (With S9), plates A, B, C","[5]; TA100, with S9, 5.4 μg/plate",98 and 73 and 105
same,"Revertant Colonies (With S9), Mean ± SD","[5]; TA100, with S9, 17 μg/plate",89 ± 15
same,"Revertant Colonies (With S9), plates A, B, C","[5]; TA100, with S9, 17 μg/plate",72 and 98 (2×)
same,"Revertant Colonies (With S9), Mean ± SD","[5]; TA100, with S9, 52 μg/plate",100 ± 16
same,"Revertant Colonies (With S9), plates A, B, C","[5]; TA100, with S9, 52 μg/plate",118 and 93 and 88
same,"Revertant Colonies (With S9), Mean ± SD","[5]; TA100, with S9, 164 μg/plate",96 ± 16
same,"Revertant Colonies (With S9), plates A, B, C","[5]; TA100, with S9, 164 μg/plate",83 and 113 and 91
same,"Revertant Colonies (With S9), Mean ± SD","[5]; TA100, with S9, 512 μg/plate",99 ± 16
same,"Revertant Colonies (With S9), plates A, B, C","[5]; TA100, with S9, 512 μg/plate",98 and 84 and 116
same,"Revertant Colonies (With S9), Mean ± SD","[5]; TA100, with S9, 1600 μg/plate",88 ± 8
same,"Revertant Colonies (With S9), plates A, B, C","[5]; TA100, with S9, 1600 μg/plate",84 and 82 and 97
same,"Revertant Colonies (With S9), Mean ± SD","[5]; TA100, with S9, 5000 μg/plate",96 ± 10
same,"Revertant Colonies (With S9), plates A, B, C","[5]; TA100, with S9, 5000 μg/plate",107 and 94 and 88
same,"Revertant Colonies (Without S9), Mean ± SD",[5]; [7],88 ± 3
same,"Revertant Colonies (Without S9), plates A, B, C",[5]; [7],91 and 86 (2×)
same,"Revertant Colonies (Without S9), Mean ± SD",[5]; [8],112 ± 15
same,"Revertant Colonies (Without S9), plates A, B, C",[5]; [8],127 and 110 and 98
same,"Revertant Colonies (Without S9), Mean ± SD","[5]; TA100, without S9, 17 μg/plate",107 ± 7
same,"Revertant Colonies (Without S9), plates A, B, C","[5]; TA100, without S9, 17 μg/plate",114 and 101 and 105
same,"Revertant Colonies (Without S9), Mean ± SD","[5]; TA100, without S9, 52 μg/plate",102 ± 22
same,"Revertant Colonies (Without S9), plates A, B, C","[5]; TA100, without S9, 52 μg/plate",105 and 122 and 78
same,"Revertant Colonies (Without S9), Mean ± SD",[5]; [9],100 ± 4
same,"Revertant Colonies (Without S9), plates A, B, C",[5]; [9],95 and 103 and 102
same,"Revertant Colonies (Without S9), Mean ± SD",[5]; [10],91 ± 17
same,"Revertant Colonies (Without S9), plates A, B, C",[5]; [10],84 and 110 and 79
same,"Revertant Colonies (Without S9), Mean ± SD",[5]; [11],91 ± 12
same,"Revertant Colonies (Without S9), plates A, B, C",[5]; [11],82 and 86 and 105
same,"Revertant Colonies (Without S9), Mean ± SD",[5]; [12],102 ± 13
same,"Revertant Colonies (Without S9), plates A, B, C",[5]; [12],91 and 116 and 99
same,Cytotoxicity (condition of microcolony lawn),[5]; [13],slight thinning of the microcolony lawn
same,Cytotoxicity (condition of microcolony lawn),[5]; [14],toxicity was not observed
same,Mutagenicity conclusion,"[6]; TA98, absence and presence of S9, 1.7 to 5000 μg/plate",non-mutagenic
same,Total number of revertants relative to concurrent vehicle control,"[6]; TA98, vs DMSO vehicle control",less than three times
same,"Revertant Colonies (With S9), Mean ± SD","[6]; TA98, with S9, 1.7 μg/plate",20 ± 9
same,"Revertant Colonies (With S9), plates A, B, C","[6]; TA98, with S9, 1.7 μg/plate",10 and 23 and 26
same,"Revertant Colonies (With S9), Mean ± SD","[6]; TA98, with S9, 5.4 μg/plate",13 ± 8
same,"Revertant Colonies (With S9), plates A, B, C","[6]; TA98, with S9, 5.4 μg/plate",4 and 15 and 19
same,"Revertant Colonies (With S9), Mean ± SD","[6]; TA98, with S9, 1600 μg/plate",17 ± 8
same,"Revertant Colonies (With S9), plates A, B, C","[6]; TA98, with S9, 1600 μg/plate",26 and 16 and 10
same,"Revertant Colonies (With S9), Mean ± SD","[6]; TA98, with S9, 5000 μg/plate",13 ± 5
same,"Revertant Colonies (With S9), plates A, B, C","[6]; TA98, with S9, 5000 μg/plate",8 and 16 (2×)
same,"Revertant Colonies (Without S9), Mean ± SD","[6]; TA98, without S9, 1.7 μg/plate",9 ± 2
same,"Revertant Colonies (Without S9), plates A, B, C","[6]; TA98, without S9, 1.7 μg/plate",8 and 11 and 7
same,"Revertant Colonies (Without S9), Mean ± SD","[6]; TA98, without S9, 5.4 μg/plate",8 ± 4
same,"Revertant Colonies (Without S9), plates A, B, C","[6]; TA98, without S9, 5.4 μg/plate",4 and 12 and 8
same,"Revertant Colonies (Without S9), Mean ± SD","[6]; TA98, without S9, 17 μg/plate",13 ± 4
same,"Revertant Colonies (Without S9), plates A, B, C","[6]; TA98, without S9, 17 μg/plate",15 and 11 and 12
same,"Revertant Colonies (Without S9), Mean ± SD",[6]; [15],9 ± 5
same,"Revertant Colonies (Without S9), plates A, B, C",[6]; [15],7 and 15 and 5
same,"Revertant Colonies (Without S9), Mean ± SD",[6]; [16],14 ± 3
same,"Revertant Colonies (Without S9), plates A, B, C",[6]; [16],18 and 12 (2×)
same,Cytotoxicity (condition of microcolony lawn),[6]; [13],slight thinning of the microcolony lawn
same,Cytotoxicity (condition of microcolony lawn),[6]; [14],toxicity was not observed
